Like-named read-outs stand apart in the source and are kept apart here.

Assay type in all cases: cell-based, human
One assay concerns SiHa cells. Description: MTT antiproliferative assay, SiHa cells. As to conditions: 48 h, mean ± SD. How it is done: (§1) HeLa and SiHa cell lines were obtained from the Procell Life Science Technology Co., Ltd. (Wuhan, China); H8 cell line was obtained from the Shanghai HonSun Biological Technology Co., Ltd. (Shanghai, China); HUVEC cell line was obtained from the Saibaikang (Shanghai) Biotechnology Co., Ltd. (Shanghai, China); HeLa/DDP cell line was obtained from the Guangzhou Jenniobio Biotechnology Co., Ltd. (Guangzhou, China). HeLa, SiHa, H8, and HeLa/DDP cells were cultured in DMEM medium (HyClone). The VEGF of 50 ng/mL was used as the promoter of the VEGFR-2 receptor on HUVEC cell membrane surfaces, and their inhibitory effects on VEGFR-2 were determined. All the mediums were supplemented with 10% FBS (HyClone, GE Healthcare, Australia). Cells were maintained at subconfluency at 37 °C in humidified air containing 5% CO2. The cells were monitored daily and maintained at 80% cell density. All compounds tested were dissolved in DMSO and then diluted by the culture medium before the treatment of cultured cells. Identification reports are available for all types of cell lines involved in this study.
(§2) The cytotoxicity of the target compounds were measured in vitro using the MTT assay. Cells grown in the logarithmic phase were counted and seeded in 96-well cell culture plates (5 × 10^3 cells per well) for 24 h to allow attachment of cells to the wall of the plate. […] Next, 20 μL of 5 mg.mL^−1 MTT solution was added to each well and cultured for 4 h. The old solution was discarded, replaced with 150 μL DMSO solution per well, and shaken for 10 min. The OD value was measured under 490 nm, and the inhibition rate was calculated. The nonlinear regression fitting of the cell growth rate was carried out using SPSS 23.0 software, and the IC50 of the compound was calculated. […] There were 6 compound holes in each group, and the experimental results were presented as the average of 3 experiments. A complete medium containing only cells was used as the blank control, whereas a complete medium without cells was the negative control group. Cisplatin and sorafenib were utilized as the positive control group, and the target compound was the experimental intervention group.
(In general: Tetrazolium assays rely on reduction of a dye to a coloured formazan, in cell work by metabolically active cells.)

The next assay relates to HeLa cells. Description: MTT antiproliferative assay, HeLa cells. As to conditions: 48 h. How it is done: as §1, §2
For a further assay, the system named is H8 cells. In words: MTT cytotoxicity assay, normal cervical epithelial H8 cells. As to conditions: 48 h, mean ± SD. The method, then: as §1, §2
The test system of a further assay is HeLa/DDP cells. Description: MTT assay, cisplatin-resistant HeLa/DDP cells. As to conditions: single agent; for RI (resistance index): HeLa/DDP versus HeLa; for IC50: cisplatin-resistant HeLa/DDP cells, 48 h, read-out: 48h IC50 HeLa/DDP.
The mark [1] stands for this setting: Homo sapiens, MTT, mean ± SD, read-out: 48h IC50 HeLa.
Setting [2] is: Homo sapiens, single agent, read-out: 48h IC50 HeLa (Table 4).

Method for HeLa/DDP cells: The cytotoxicity of the target compounds were measured in vitro using the MTT assay. Cells grown in the logarithmic phase were counted and seeded in 96-well cell culture plates (5 × 10^3 cells per well) for 24 h to allow attachment of cells to the wall of the plate. […] Next, 20 μL of 5 mg.mL^−1 MTT solution was added to each well and cultured for 4 h. The old solution was discarded, replaced with 150 μL DMSO solution per well, and shaken for 10 min. The OD value was measured under 490 nm, and the inhibition rate was calculated. The nonlinear regression fitting of the cell growth rate was carried out using SPSS 23.0 software, and the IC50 of the compound was calculated. […] A complete medium containing only cells was used as the blank control, whereas a complete medium without cells was the negative control group.
To reduce the adverse reactions caused by the fixation of drug resistance reversal agents, the concentration that reduces the proliferation rate of tumor cells by less than 10% was selected.

Consider `COc1cc(O)c(C(=O)/C=C/c2ccc(CN3CCC(O)CC3)cc2)cc1CN1CCC(O)CC1` [6a, (E)-1-(2-hydroxy-5-((4-hydroxypiperidin-1-yl)methyl)-4-methoxyphenyl)-3-(4-((4-hydroxypiperidin-1-yl)methyl)phenyl)prop-2-en-1-one], for which the results for the IC50 with SiHa cells (Homo sapiens), in the assay with HeLa cells (setting [1]) and with H8 cells (Homo sapiens) were greater than 100 µM, 72.9 ± 0.12 µM and greater than 100 µM, respectively.
For `COc1cc(O)c(C(=O)/C=C/c2ccc(CN3CCC(OC)CC3)cc2)cc1CN1CCC(O)CC1` [6b, (E)-1-(2-hydroxy-5-((4-hydroxypiperidin-1-yl)methyl)-4-methoxyphenyl)-3-(4-((4-methoxypiperidin-1-yl)methyl)phenyl)prop-2-en-1-one], the figures for the IC50 with SiHa cells (Homo sapiens), with HeLa cells (setting [1]) and with H8 cells (Homo sapiens) were 57.1 ± 1.3 µM, 40.13 ± 0.11 µM and 82.5 ± 5.21 µM, respectively.
As for `COc1cc(O)c(C(=O)/C=C/c2ccc(CN3CCCC3)cc2)cc1CN1CCC(O)CC1` [6c, (E)-1-(2-hydroxy-5-((4-hydroxypiperidin-1-yl)methyl)-4-methoxyphenyl)-3-(4-(pyrrolidin-1-ylmethyl)phenyl)prop-2-en-1-one], the IC50 was found to be 44.49 ± 0.38 µM in the assay on SiHa cells (Homo sapiens), 32.17 ± 0.14 µM in the assay on HeLa cells (setting [1]) and 34 ± 4.14 µM in the assay on H8 cells (Homo sapiens).
Regarding `COc1cc(O)c(C(=O)/C=C/c2ccc(CN3CCN(C)CC3)cc2)cc1CN1CCC(O)CC1` [6d, (E)-1-(2-hydroxy-5-((4-hydroxypiperidin-1-yl)methyl)-4-methoxyphenyl)-3-(4-((4-methylpiperazin-1-yl)methyl)phenyl)prop-2-en-1-one], the IC50 in the assay with SiHa cells (Homo sapiens), with HeLa cells (setting [1]) and with H8 cells (Homo sapiens) was greater than 100 µM in each case.
Turning to `COc1cc(O)c(C(=O)/C=C/c2ccc(CN3CCOCC3)cc2)cc1CN1CCC(O)CC1` [6e, (E)-1-(2-hydroxy-5-((4-hydroxypiperidin-1-yl)methyl)-4-methoxyphenyl)-3-(4-(morpholinomethyl)phenyl)prop-2-en-1-one], the figures for the IC50 in the assay with SiHa cells (Homo sapiens), in the assay with HeLa cells (setting [1]) and in the assay with H8 cells (Homo sapiens) were greater than 100 µM, 56.7 ± 0.59 µM and 75.69 ± 0.49 µM, respectively.
For `COc1cc(O)c(C(=O)/C=C/c2ccc(CN3CCC(C)CC3)cc2)cc1CN1CCC(OC)CC1` [6g, (E)-1-(2-hydroxy-4-methoxy-5-((4-methoxypiperidin-1-yl)methyl)phenyl)-3-(4-((4-methylpiperidin-1-yl)methyl)phenyl)prop-2-en-1-one], the IC50 in the assay on SiHa cells (Homo sapiens) was determined as 85.04 ± 0.47 µM; with HeLa cells (setting [1]) it was 47.05 ± 0.11 µM; in the assay on H8 cells (Homo sapiens), 72.9 ± 1.08 µM.
With `COc1cc(O)c(C(=O)/C=C/c2ccc(CN3CCOCC3)cc2)cc1CN1CCC(OC)CC1` [6h, (E)-1-(2-hydroxy-4-methoxy-5-((4-methoxypiperidin-1-yl)methyl)phenyl)-3-(4-(morpholinomethyl)phenyl)prop-2-en-1-one], the IC50 in the assay on SiHa cells (Homo sapiens), with HeLa cells (setting [1]) and in the assay on H8 cells (Homo sapiens) was greater than 100 µM throughout.
On to `COc1cc(O)c(C(=O)/C=C/c2ccc(CN3CCC(O)CC3)cc2)cc1CN1CCCC1` [6i, (E)-1-(2-hydroxy-4-methoxy-5-(pyrrolidin-1-ylmethyl)phenyl)-3-(4-((4-hydroxypiperidin-1-yl)methyl)phenyl)prop-2-en-1-one], for which the IC50 in the assay with SiHa cells (Homo sapiens) was 77.02 ± 0.22 µM; in the assay with HeLa cells (setting [1]), 46.15 ± 0.35 µM; in the assay on H8 cells (Homo sapiens), 71.64 ± 0.48 µM.
The like results for `COc1cc(O)c(C(=O)/C=C/c2ccc(CN3CCOCC3)cc2)cc1CN1CCCC1` [6j, (E)-1-(2-hydroxy-4-methoxy-5-(pyrrolidin-1-ylmethyl)phenyl)-3-(4-(morpholinomethyl)phenyl)prop-2-en-1-one] were, in that order, 47.65 ± 0.19 µM, 37.74 ± 0.22 µM and 58.46 ± 0.19 µM.
As to `COc1cc(O)c(C(=O)/C=C/c2ccc(CN3CCC(OC)CC3)cc2)cc1CN1CCCC1` [6l, (E)-1-(2-hydroxy-4-methoxy-5-(pyrrolidin-1-ylmethyl)phenyl)-3-(4-((4-methoxypiperidin-1-yl)methyl)phenyl)prop-2-en-1-one], the IC50 in the assay with SiHa cells (Homo sapiens), with HeLa cells (setting [1]) and in the assay on H8 cells (Homo sapiens) was greater than 100 µM throughout.
Consider `COc1cc(O)c(C(=O)/C=C/c2ccc(CN3CCN(C)CC3)cc2)cc1CN1CCCC1` [6m, (E)-1-(2-hydroxy-4-methoxy-5-(pyrrolidin-1-ylmethyl)phenyl)-3-(4-((4-methylpiperazin-1-yl)methyl)phenyl)prop-2-en-1-one], for which the IC50 with SiHa cells (Homo sapiens) was greater than 100 µM; with HeLa cells (setting [1]) it was 52.43 ± 0.42 µM; in the assay on H8 cells (Homo sapiens), greater than 100 µM.
`COc1cc(O)c(C(=O)/C=C/c2ccc(CN3CCOCC3)cc2)cc1CN1CCOCC1` [6n, (E)-1-(2-hydroxy-4-methoxy-5-(morpholinomethyl)phenyl)-3-(4-(morpholinomethyl)phenyl)prop-2-en-1-one]: the IC50 in the assay on SiHa cells (Homo sapiens), in the assay with HeLa cells (setting [1]) and with H8 cells (Homo sapiens) was greater than 100 µM in each case.
Turning to `COc1cc(O)c(C(=O)/C=C/c2ccc(CN3CCC(OC)CC3)cc2)cc1CN1CCOCC1` [6p, (E)-1-(2-hydroxy-4-methoxy-5-(morpholinomethyl)phenyl)-3-(4-((4-methoxypiperidin-1-yl)methyl)phenyl)prop-2-en-1-one], the IC50 in the assay with SiHa cells (Homo sapiens) stood at 66.04 ± 0.49 µM; in the assay with HeLa cells (setting [1]), 79.9 ± 2.4 µM; in the assay with H8 cells (Homo sapiens), 85.4 ± 3.92 µM.
The like results for `COc1cc(O)c(C(=O)/C=C/c2ccc(CN3CCOCC3)cc2)cc1CN1CCC(C)CC1` [6q, (E)-1-(2-hydroxy-4-methoxy-5-((4-methylpiperidin-1-yl)methyl)phenyl)-3-(4-(morpholinomethyl)phenyl)prop-2-en-1-one] were, in that order, greater than 100 µM, 88.17 ± 0.72 µM and greater than 100 µM.
In the same order, the values of `COc1cc(O)c(C(=O)/C=C/c2ccc(CN3CCC(C)CC3)cc2)cc1CN1CCC(C)CC1` [6r, (E)-1-(2-hydroxy-4-methoxy-5-((4-methylpiperidin-1-yl)methyl)phenyl)-3-(4-((4-methylpiperidin-1-yl)methyl)phenyl)prop-2-en-1-one] are 36.6 ± 1.94 µM, 25.5 ± 1.21 µM and 42.2 ± 0.8 µM.
Turning to `COc1cc(O)c(C(=O)/C=C/c2ccc(CN3CCCC3)cc2)cc1CN1CCC(C)CC1` [6s, (E)-1-(2-hydroxy-4-methoxy-5-((4-methylpiperidin-1-yl)methyl)phenyl)-3-(4-(pyrrolidin-1-ylmethyl)phenyl)prop-2-en-1-one], the IC50 with SiHa cells (Homo sapiens) was found to be 36.1 ± 1.71 µM; with HeLa cells (setting [1]), 30.9 ± 0.39 µM; in the assay on H8 cells (Homo sapiens), 35.4 ± 0.61 µM.
The like results for `COc1cc(O)c(C(=O)/C=C/c2ccc(CN3CCN(C)CC3)cc2)cc1CN1CCC(C)CC1` [6t, (E)-1-(2-hydroxy-4-methoxy-5-((4-methylpiperidin-1-yl)methyl)phenyl)-3-(4-((4-methylpiperazin-1-yl)methyl)phenyl)prop-2-en-1-one] were, in that order, 36 ± 6.3 µM, 30.9 ± 0.18 µM and 42.11 ± 0.31 µM.
Turning to `COc1cc(O)c(C(=O)/C=C/c2ccc(CN3CCC(C)CC3)cc2)cc1CN1CCN(C)CC1` [6u, (E)-1-(2-hydroxy-4-methoxy-5-((4-methylpiperazin-1-yl)methyl)phenyl)-3-(4-((4-methylpiperidin-1-yl)methyl)phenyl)prop-2-en-1-one], the IC50 in the assay with SiHa cells (Homo sapiens) is 28.2 ± 0.5 µM; in the assay with HeLa cells (setting [1]) it was 28.01 ± 0.14 µM; with H8 cells (Homo sapiens) it was 42.5 ± 0.85 µM.
Take `N.N.[Cl][Pt][Cl]` [Cisplatin, reference compound]: the “RI (resistance index)” value in the assay on HeLa/DDP cells is recorded as 7.36. The IC50 was found to be 100 ± 7.94 µM in the assay with HeLa/DDP cells; 21.6 ± 2.9 µM with SiHa cells; 13.6 ± 1.63 µM in the assay with HeLa cells (MTT, mean ± SD, read-out: 48h IC50 HeLa); 13.6 ± 1.63 µM with HeLa cells (single agent, read-out: 48h IC50 HeLa (Table 4)); 24.8 ± 1.37 µM in the assay with H8 cells.
Take `COc1cccc2c1C(=O)c1c(O)c3c(c(O)c1C2=O)C[C@@](O)(C(=O)CO)C[C@@H]3O[C@H]1C[C@H](N)[C@H](O)[C@H](C)O1` [Doxorubicin]: in the assay on HeLa/DDP cells, the “RI (resistance index)” value was 3.93. Further, the IC50 came out at 41.6 ± 2.05 µM in the assay with HeLa/DDP cells (Homo sapiens) and 10.6 ± 0.5 µM in the assay on HeLa cells (setting [2]).
Consider `CC(=O)O[C@H]1C(=O)[C@@]2(C)[C@H]([C@H](OC(=O)c3ccccc3)[C@]3(O)C[C@H](OC(=O)[C@H](O)[C@@H](NC(=O)c4ccccc4)c4ccccc4)C(C)=C1C3(C)C)[C@]1(OC(C)=O)CO[C@@H]1C[C@@H]2O` [Paclitaxel, reference compound], for which the values for the IC50 with HeLa/DDP cells (Homo sapiens) and with HeLa cells (setting [2]) were 125 ± 5.3 µM and 20.1 ± 1.05 µM, respectively.

The values above are taken from article PMC10254235, “Design, Synthesis, and Anti-Cervical Cancer and Reversal of Tumor Multidrug Resistance Activity of Novel Nitrogen-Containing Heterocyclic Chalcone Derivatives” (Molecules, 2023).
